Reference: PubChem BioAssay (NCI)
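Cells were grown in 96-well plates and exposed to each compound for 48 hours at five concentrations; endpoints were interpolated linearly between bracketing concentrations, or set to the highest concentration if not reached. At the GI50, growth is halved. Definition used: TGI = concentration required for complete inhibition of growth.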

How the values were obtained:
Test in all cases: DTP human tumour cell line panel, 48 h
SNB-75 CNS = test system: SNB-75 CNS
MOLT-4 leukemia = test system: MOLT-4 leukemia
ACHN renal = test system: ACHN renal
HCT-116 colon = test system: HCT-116 colon
SF-268 CNS = test system: SF-268 CNS
SR leukemia = test system: SR leukemia
MALME-3M melanoma = test system: MALME-3M melanoma
COLO 205 colon = test system: COLO 205 colon
HT29 colon = test system: HT29 colon
NCI-H460 lung = test system: NCI-H460 lung
SF-295 CNS = test system: SF-295 CNS
NCI-H522 lung = test system: NCI-H522 lung
OVCAR-5 ovarian = test system: OVCAR-5 ovarian
UO-31 renal = test system: UO-31 renal
NCI/ADR-RES ovarian = test system: NCI/ADR-RES ovarian
T-47D breast = test system: T-47D breast
UACC-257 melanoma = test system: UACC-257 melanoma
KM12 colon = test system: KM12 colon
A498 renal = test system: A498 renal
SNB-19 CNS = test system: SNB-19 CNS
IGROV1 ovarian = test system: IGROV1 ovarian
RPMI-8226 leukemia = test system: RPMI-8226 leukemia
PC-3 prostate = test system: PC-3 prostate
CAKI-1 renal = test system: CAKI-1 renal
NCI-H23 lung = test system: NCI-H23 lung
SK-MEL-28 melanoma = test system: SK-MEL-28 melanoma
OVCAR-4 ovarian = test system: OVCAR-4 ovarian
MDA-MB-435 = test system: MDA-MB-435
CCRF-CEM leukemia = test system: CCRF-CEM leukemia
SK-OV-3 ovarian = test system: SK-OV-3 ovarian
K-562 leukemia = test system: K-562 leukemia
TK-10 renal = test system: TK-10 renal
U251 CNS = test system: U251 CNS
HL-60(TB) leukemia = test system: HL-60(TB) leukemia
SF-539 CNS = test system: SF-539 CNS
OVCAR-8 ovarian = test system: OVCAR-8 ovarian
OVCAR-3 ovarian = test system: OVCAR-3 ovarian
HOP-62 NSCLC = test system: HOP-62 NSCLC
SK-MEL-2 melanoma = test system: SK-MEL-2 melanoma
MCF7 breast = test system: MCF7 breast
MDA-MB-231 breast = test system: MDA-MB-231 breast
UACC-62 melanoma = test system: UACC-62 melanoma
A549 NSCLC = test system: A549 NSCLC
786-0 renal = test system: 786-0 renal
BT-549 breast = test system: BT-549 breast
EKVX NSCLC = test system: EKVX NSCLC
HCT-15 colon = test system: HCT-15 colon
SK-MEL-5 melanoma = test system: SK-MEL-5 melanoma
LOX IMVI melanoma = test system: LOX IMVI melanoma
RXF 393 renal = test system: RXF 393 renal
DU-145 prostate = test system: DU-145 prostate
NCI-H226 lung = test system: NCI-H226 lung
SW-620 colon = test system: SW-620 colon
M14 melanoma = test system: M14 melanoma
HS 578T breast = test system: HS 578T breast

In the case of `Cc1ccc(/C(=N/NS(=O)(=O)c2ccc([N+](=O)[O-])cc2)Sc2cc(Cl)c(C)cc2S(N)(=O)=O)cc1`, the GI50 (SNB-75 CNS) was over 100 µM, the TGI (SNB-75 CNS) was over 100 µM and the GI50 (MOLT-4 leukemia) was over 100 µM. The TGI (MOLT-4 leukemia) was over 100 µM, the GI50 (ACHN renal) was over 100 µM and the TGI (ACHN renal) was over 100 µM. The GI50 (HCT-116 colon) was over 100 µM, the TGI (HCT-116 colon) was over 100 µM and the GI50 (SF-268 CNS) was over 100 µM. It also gave a TGI (SF-268 CNS) of over 100 µM, a GI50 (SR leukemia) of over 100 µM and a TGI (SR leukemia) of over 100 µM. For the same compound, the GI50 (MALME-3M melanoma) was 11.9 µM, the TGI (MALME-3M melanoma) was over 100 µM and the GI50 (COLO 205 colon) was over 100 µM. It also gave a TGI (COLO 205 colon) of over 100 µM, a GI50 (HT29 colon) of over 100 µM and a TGI (HT29 colon) of over 100 µM. For the same compound, the GI50 (NCI-H460 lung) was over 100 µM, the TGI (NCI-H460 lung) was over 100 µM and the GI50 (SF-295 CNS) was over 100 µM. The TGI (SF-295 CNS) was over 100 µM, the GI50 (NCI-H522 lung) was over 100 µM and the TGI (NCI-H522 lung) was over 100 µM. The GI50 (OVCAR-5 ovarian) was over 100 µM, the TGI (OVCAR-5 ovarian) was over 100 µM and the GI50 (UO-31 renal) was over 100 µM. The TGI (UO-31 renal) was over 100 µM, the GI50 (NCI/ADR-RES ovarian) was over 100 µM and the TGI (NCI/ADR-RES ovarian) was over 100 µM. It also gave a GI50 (T-47D breast) of over 100 µM, a TGI (T-47D breast) of over 100 µM and a GI50 (UACC-257 melanoma) of over 100 µM. It also gave a TGI (UACC-257 melanoma) of over 100 µM, a GI50 (KM12 colon) of over 100 µM and a TGI (KM12 colon) of over 100 µM. It also gave a GI50 (A498 renal) of over 100 µM, a TGI (A498 renal) of over 100 µM and a GI50 (SNB-19 CNS) of over 100 µM. It also gave a TGI (SNB-19 CNS) of over 100 µM, a GI50 (IGROV1 ovarian) of over 100 µM and a TGI (IGROV1 ovarian) of over 100 µM. For the same compound, the GI50 (RPMI-8226 leukemia) was 11.9 µM, the TGI (RPMI-8226 leukemia) was over 100 µM and the GI50 (PC-3 prostate) was 12.5 µM. It also gave a TGI (PC-3 prostate) of over 100 µM, a GI50 (CAKI-1 renal) of over 100 µM and a TGI (CAKI-1 renal) of over 100 µM. The GI50 (NCI-H23 lung) was over 100 µM, the TGI (NCI-H23 lung) was over 100 µM and the GI50 (SK-MEL-28 melanoma) was over 100 µM. For the same compound, the TGI (SK-MEL-28 melanoma) was over 100 µM, the GI50 (OVCAR-4 ovarian) was over 100 µM and the TGI (OVCAR-4 ovarian) was over 100 µM. The GI50 (MDA-MB-435) was over 100 µM, the TGI (MDA-MB-435) was over 100 µM and the GI50 (CCRF-CEM leukemia) was over 100 µM. The TGI (CCRF-CEM leukemia) was over 100 µM, the GI50 (SK-OV-3 ovarian) was over 100 µM and the TGI (SK-OV-3 ovarian) was over 100 µM. The GI50 (K-562 leukemia) was over 100 µM, the TGI (K-562 leukemia) was over 100 µM and the GI50 (TK-10 renal) was over 100 µM. The TGI (TK-10 renal) was over 100 µM, the GI50 (U251 CNS) was over 100 µM and the TGI (U251 CNS) was over 100 µM. It also gave a GI50 (HL-60(TB) leukemia) of over 100 µM, a TGI (HL-60(TB) leukemia) of over 100 µM and a GI50 (SF-539 CNS) of over 100 µM. The TGI (SF-539 CNS) was over 100 µM, the GI50 (OVCAR-8 ovarian) was over 100 µM and the TGI (OVCAR-8 ovarian) was over 100 µM. The GI50 (OVCAR-3 ovarian) was over 100 µM, the TGI (OVCAR-3 ovarian) was over 100 µM and the GI50 (HOP-62 NSCLC) was over 100 µM. It also gave a TGI (HOP-62 NSCLC) of over 100 µM, a GI50 (SK-MEL-2 melanoma) of over 100 µM and a TGI (SK-MEL-2 melanoma) of over 100 µM. For the same compound, the GI50 (MCF7 breast) was over 100 µM, the TGI (MCF7 breast) was over 100 µM and the GI50 (MDA-MB-231 breast) was 27.3 µM. The TGI (MDA-MB-231 breast) was over 100 µM, the GI50 (UACC-62 melanoma) was over 100 µM and the TGI (UACC-62 melanoma) was over 100 µM. It also gave a GI50 (A549 NSCLC) of over 100 µM, a TGI (A549 NSCLC) of over 100 µM and a GI50 (786-0 renal) of over 100 µM. The TGI (786-0 renal) was over 100 µM, the GI50 (BT-549 breast) was over 100 µM and the TGI (BT-549 breast) was over 100 µM. It also gave a GI50 (EKVX NSCLC) of over 100 µM, a TGI (EKVX NSCLC) of over 100 µM and a GI50 (HCT-15 colon) of over 100 µM. It also gave a TGI (HCT-15 colon) of over 100 µM, a GI50 (SK-MEL-5 melanoma) of over 100 µM and a TGI (SK-MEL-5 melanoma) of over 100 µM. It also gave a GI50 (LOX IMVI melanoma) of over 100 µM, a TGI (LOX IMVI melanoma) of over 100 µM and a GI50 (RXF 393 renal) of 47.7 µM. For the same compound, the TGI (RXF 393 renal) was over 100 µM, the GI50 (DU-145 prostate) was over 100 µM and the TGI (DU-145 prostate) was over 100 µM. For the same compound, the GI50 (NCI-H226 lung) was over 100 µM, the TGI (NCI-H226 lung) was over 100 µM and the GI50 (SW-620 colon) was over 100 µM. The TGI (SW-620 colon) was over 100 µM, the GI50 (M14 melanoma) was over 100 µM and the TGI (M14 melanoma) was over 100 µM. The GI50 (HS 578T breast) was over 100 µM and the TGI (HS 578T breast) was over 100 µM.
